Counter-ions that a name gives are not always drawn. Like-named read-outs stand apart in the source and are kept apart here.
How the values were obtained:
SMN2 mRNA = assay: Splicing RT-qPCR panel, SMN2 canonical junction (CJ) mRNA; assay type: cell-based, human; settings: Homo sapiens, read-out: SMN2 CJ (decrease in CJ mRNA levels, IC50)
Outline: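 A673 cells (DMEM, 10% FBS) or K562 cells (IMDM, 10% FBS) treated 24 h at 37 °C with an 11-point 3-fold dilution, top 10 uM, DMSO ≤0.25%. Canonical-junction mRNA quantified in lysates by RT-qPCR, normalised to GAPDH, GUSB or PPIA and to DMSO (2^−ΔΔCt), then converted to % response.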

HTT mRNA = assay: Splicing RT-qPCR assay, HTT canonical (CJ) and alternative (AJ) junction mRNA; assay type: cell-based, human; settings: Homo sapiens; for IC50: canonical junction mRNA; for AC50: alternative junction mRNA, read-out: HTT AJ (AC50, increase in AJ mRNA)
Outline: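 Splicing switches are scored by TaqMan qPCR on cell lysate, comparing abundance of the normal exon junction with the new junction formed when the alternative exon is included. A673 results are referenced to PPIA and K562 results to GAPDH or GUSB. Compound exposure lasts 24 h.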

[1] = 24 h, RT-qPCR, A673 or K562 cells, 24 hours treatment, read-out: HTT CJ (IC50, decrease in CJ mRNA)
[2] = qPCR panel, read-out: HTT CJ (decrease in CJ mRNA levels, IC50)
[3] = RT-qPCR, A673 or K562 cells, 24 hours treatment

| Structure (SMILES) | IC50 (SMN2 mRNA) | IC50 (HTT mRNA; [1]) | IC50 (HTT mRNA; [2]) | AC50 (HTT mRNA; [3]) |
| --- | --- | --- | --- | --- |
| CN[C@@H]1CN(c2cnc3nc(-c4cc5cn(C)nc5c(C)c4O)ccc3c2)C[C@H]1C [Compound 126, 2,7-dimethyl-5-{6-[(3R,4S)-3-methyl-4-(methylamino)382pyrrolidine-1-yl]-1,8-naphthyridin-2-yl}indazol-6-ol] | < 100 nM | 100 to 1000 nM | 100 to 1000 nM | 1000 to 10000 nM |
| CN[C@H]1CN(c2cnc3nc(-c4cc5cn(C)nc5c(C)c4O)ccc3c2)C[C@H]1C [Compound 125, 2,7-dimethyl-5-{6-[(3R,4R)-3-methyl-4-(methylamino)379pyrrolidine-1-yl]-1,8-naphthyridin-2-yl}indazol-6-ol] | < 100 nM | 100 to 1000 nM | 100 to 1000 nM | 100 to 1000 nM |
| CCN[C@@H]1CCN(c2cnc3nc(-c4cc5cn(C)nc5cc4O)ccc3c2)C1 [Compound 310, 5-{6-[(3R)-3-(ethylamino)468pyrrolidine-1-yl]-1,8-naphthyridin-2-yl}-2-methylindazol-6-ol hydrochloride] | < 100 nM | < 100 nM | < 100 nM | 100 to 1000 nM |
| Cn1cc2cc(-c3ccc4cc(N5CCC(NC(C)(C)C)C5)cnc4n3)c(O)cc2n1 (stereo not shown) [Compound 134, 5-{6-[3-(tert-butylamino)pyrrolidin-1-yl]-1,8-naphthyridin-2-yl}-2-methylindazol-6-ol hydrochloride] | < 100 nM | 100 to 1000 nM | 100 to 1000 nM | 100 to 1000 nM |
| C[C@@H]1CN(c2cnc3nc(-c4cc5cn(C)nc5c(F)c4O)cc(Cl)c3c2)C[C@H](C)N1 [Compound 279] | < 100 nM | 100 to 1000 nM | 100 to 1000 nM | 100 to 1000 nM |
| C[C@@H]1CN(c2cnc3nc(-c4cc(C#N)c5nn(C)cc5c4)cc(Cl)c3c2)C[C@H](C)N1 [Compound 325, 5-(4-chloro-6-((3R,5S)-3,5-dimethylpiperazin-1-yl)-1,8-naphthyridin-2-yl)-2-methyl-2H-indazole-7-carbonitrile 2,2,2-trifluoroacetate] | < 100 nM | > 10000 nM | > 10000 nM | > 10000 nM |
| Cc1cn2cc(-c3cc(Cl)c4cc(N5CCNCC5)cnc4n3)cc(F)c2n1 [Compound 153, 4-chloro-2-{8-fluoro-2-methylimidazo[1,2-a]pyridin-6-yl}-6-(piperazin-1-yl)-1,8-naphthyridine] | < 100 nM | 100 to 1000 nM | 100 to 1000 nM | 1000 to 10000 nM |

Second part, led by results:

| IC50 (SMN2 mRNA) | IC50 (HTT mRNA; [1]) | IC50 (HTT mRNA; [2]) | Structure (SMILES) | AC50 (HTT mRNA; [3]) |
| --- | --- | --- | --- | --- |
| < 100 nM | 100 to 1000 nM | 100 to 1000 nM | Cc1c(O)c(-c2cc(C3CC3)c3cc(N4CCNCC4)cnc3n2)cc2cn(C)nc12 [Compound 144, 5-(4-cyclopropyl-6-(piperazin-1-yl)-1,8-naphthyridin-2-yl)-2,7-dimethyl-2H-indazol-6-ol bis(2,2,2-trifluoroacetate)] | 100 to 1000 nM |
| < 100 nM | 100 to 1000 nM | 100 to 1000 nM | CN1CCC[C@@H]2CN(c3cnc4nc(-c5cc6cn(C)nc6c(F)c5O)cc(Cl)c4c3)C[C@@H]21 [Compound 303] | > 10000 nM |
| < 100 nM | < 100 nM | < 100 nM | CN[C@H]1CCN(c2cnc3nc(-c4cc5cn(C)nc5c(F)c4O)cc(Cl)c3c2)C1 [Compound 272] | < 100 nM |
| < 100 nM | 100 to 1000 nM | 100 to 1000 nM | Cc1c(O)c(-c2cc(Cl)c3cc(N4C[C@@H](C)N[C@@H](C)C4)cnc3n2)cc2cn(C)nc12 [Compound 149] | 100 to 1000 nM |
| < 100 nM | < 100 nM | < 100 nM | CN[C@@H]1CCN(c2cnc3nc(-c4cc5cn(C)nc5c(C)c4O)ccc3c2)C1 [Compound 112] | < 100 nM |
| < 100 nM | < 100 nM | < 100 nM | C[C@@H]1CN(c2cnc3nc(-c4cc5cn(C)nc5c(F)c4O)cc(Cl)c3c2)C[C@@H](C)N1 [Compound 281] | 100 to 1000 nM |
